Legend:
[1] = target: Cyclin-dependent kinase 2 (Homo sapiens, UniProt P24941); experiment: Selectivity interaction (Kinase panel (DSF assay)) EUB0001558a CDK2
[2] = target: Serine/threonine-protein kinase PAK 3 (Homo sapiens) (UniProt O75914); experiment: Selectivity interaction (KinomeScan (DiscoverX)) EUB0000229b PAK3; details: at 10 µM
[3] = target: T1, Serine/threonine-protein kinase 17A (Homo sapiens) (UniProt Q9UEE5); experiment: Selectivity interaction (KinomeScan (DiscoverX)) EUB0000092b STK17A; details: at 10 µM
T1 sequence (whole entry): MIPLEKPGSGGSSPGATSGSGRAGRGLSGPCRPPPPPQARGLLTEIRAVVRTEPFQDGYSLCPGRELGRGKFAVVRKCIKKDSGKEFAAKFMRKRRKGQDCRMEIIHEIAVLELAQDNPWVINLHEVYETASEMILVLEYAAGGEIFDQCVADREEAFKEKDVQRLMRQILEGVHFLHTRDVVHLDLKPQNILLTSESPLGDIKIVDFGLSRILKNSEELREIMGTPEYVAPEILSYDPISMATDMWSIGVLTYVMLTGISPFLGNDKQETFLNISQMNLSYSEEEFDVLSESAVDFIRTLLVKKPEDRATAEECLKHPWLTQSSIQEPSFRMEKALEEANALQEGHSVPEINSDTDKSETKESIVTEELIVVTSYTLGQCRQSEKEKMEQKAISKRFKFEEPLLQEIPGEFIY

[4] = target: Epithelial discoidin domain-containing receptor 1 (Homo sapiens) (UniProt Q08345); experiment: Selectivity interaction (KinomeScan (DiscoverX)) EUB0000092b DDR1; details: at 10 µM
Epithelial discoidin domain-containing receptor 1 (Homo sapiens), sequence (Q08345 whole entry, the tested form may be a part): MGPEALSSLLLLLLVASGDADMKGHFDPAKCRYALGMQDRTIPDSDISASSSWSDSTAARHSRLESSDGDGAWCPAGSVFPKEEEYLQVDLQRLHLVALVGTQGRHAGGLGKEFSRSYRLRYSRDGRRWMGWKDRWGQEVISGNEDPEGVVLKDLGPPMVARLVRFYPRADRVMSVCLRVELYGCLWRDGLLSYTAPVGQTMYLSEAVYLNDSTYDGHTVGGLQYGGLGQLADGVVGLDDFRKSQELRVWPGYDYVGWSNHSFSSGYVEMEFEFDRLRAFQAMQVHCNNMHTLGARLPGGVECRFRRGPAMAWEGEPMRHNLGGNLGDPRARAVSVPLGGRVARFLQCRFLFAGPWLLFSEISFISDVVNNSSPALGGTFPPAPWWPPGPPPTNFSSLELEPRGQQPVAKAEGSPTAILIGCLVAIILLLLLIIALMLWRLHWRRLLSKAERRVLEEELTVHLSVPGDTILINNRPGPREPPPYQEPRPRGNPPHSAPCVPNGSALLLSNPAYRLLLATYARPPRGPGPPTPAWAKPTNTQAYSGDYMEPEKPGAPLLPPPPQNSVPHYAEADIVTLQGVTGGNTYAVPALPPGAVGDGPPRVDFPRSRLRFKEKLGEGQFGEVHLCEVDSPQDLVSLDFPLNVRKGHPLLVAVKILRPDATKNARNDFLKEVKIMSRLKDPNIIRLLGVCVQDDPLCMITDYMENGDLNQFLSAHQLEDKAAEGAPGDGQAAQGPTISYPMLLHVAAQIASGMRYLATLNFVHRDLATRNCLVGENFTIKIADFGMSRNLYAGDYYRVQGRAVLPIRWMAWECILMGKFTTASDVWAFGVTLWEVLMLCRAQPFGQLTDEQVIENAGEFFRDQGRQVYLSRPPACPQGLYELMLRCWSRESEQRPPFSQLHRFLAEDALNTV

[5] = target: Protein kinase C beta type (Homo sapiens, UniProt P05771); experiment: Selectivity interaction (ProQinase) EUB0000171b PRKCB; details: at 1 µM
Protein kinase C beta type, sequence (P05771 2-671 limits assumed): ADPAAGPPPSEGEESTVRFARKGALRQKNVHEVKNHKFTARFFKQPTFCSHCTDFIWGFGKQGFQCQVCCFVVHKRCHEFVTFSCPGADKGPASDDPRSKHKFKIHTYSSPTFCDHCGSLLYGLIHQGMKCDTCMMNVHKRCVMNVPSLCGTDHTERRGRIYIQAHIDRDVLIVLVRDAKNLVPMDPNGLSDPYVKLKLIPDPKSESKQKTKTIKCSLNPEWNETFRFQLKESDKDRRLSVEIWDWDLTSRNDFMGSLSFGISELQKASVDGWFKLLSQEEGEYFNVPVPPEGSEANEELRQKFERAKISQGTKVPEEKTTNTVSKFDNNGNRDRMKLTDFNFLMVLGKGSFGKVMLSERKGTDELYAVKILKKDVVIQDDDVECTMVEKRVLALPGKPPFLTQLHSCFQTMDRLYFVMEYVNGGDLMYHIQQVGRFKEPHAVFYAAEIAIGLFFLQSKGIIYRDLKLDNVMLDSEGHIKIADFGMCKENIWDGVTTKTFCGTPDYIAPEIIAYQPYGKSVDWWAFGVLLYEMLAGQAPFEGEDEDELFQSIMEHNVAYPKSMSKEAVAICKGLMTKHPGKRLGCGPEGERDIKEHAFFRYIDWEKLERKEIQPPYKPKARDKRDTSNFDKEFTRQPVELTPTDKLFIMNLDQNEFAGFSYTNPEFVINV

[6] = target: Ephrin type-A receptor 2 (Homo sapiens) (UniProt P29317); experiment: Selectivity interaction (KinomeScan (DiscoverX)) EUB0001079a EPHA2; details: at 1 µM
[7] = target: D(3) dopamine receptor (Homo sapiens, UniProt P35462); experiment: Selectivity interaction (GPCR panel (PDSP screen)) EUB0001079a DRD3; details: at 10 µM
D(3) dopamine receptor, sequence (P35462 whole entry): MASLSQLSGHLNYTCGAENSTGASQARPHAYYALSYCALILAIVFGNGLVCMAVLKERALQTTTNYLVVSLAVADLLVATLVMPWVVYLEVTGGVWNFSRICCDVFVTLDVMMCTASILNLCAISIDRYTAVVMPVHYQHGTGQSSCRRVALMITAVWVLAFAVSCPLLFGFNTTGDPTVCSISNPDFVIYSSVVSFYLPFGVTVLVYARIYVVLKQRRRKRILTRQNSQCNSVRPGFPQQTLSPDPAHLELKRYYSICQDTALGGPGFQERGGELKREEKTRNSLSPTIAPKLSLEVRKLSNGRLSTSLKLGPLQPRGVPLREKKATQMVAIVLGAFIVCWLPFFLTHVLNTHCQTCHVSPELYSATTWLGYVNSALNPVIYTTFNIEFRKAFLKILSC

[8] = target: Mitogen-activated protein kinase 6 (Homo sapiens) (UniProt Q16659); experiment: Selectivity interaction (KinomeScan (DiscoverX)) EUB0001079a MAPK6; details: at 1 µM
[9] = target: Epithelial discoidin domain-containing receptor 1 (Homo sapiens) (UniProt Q08345); details: at 10 µM
[10] = target: Tyrosine-protein kinase ABL2 (Homo sapiens, UniProt P42684); details: at 10 µM
Tyrosine-protein kinase ABL2, sequence (P42684 whole entry): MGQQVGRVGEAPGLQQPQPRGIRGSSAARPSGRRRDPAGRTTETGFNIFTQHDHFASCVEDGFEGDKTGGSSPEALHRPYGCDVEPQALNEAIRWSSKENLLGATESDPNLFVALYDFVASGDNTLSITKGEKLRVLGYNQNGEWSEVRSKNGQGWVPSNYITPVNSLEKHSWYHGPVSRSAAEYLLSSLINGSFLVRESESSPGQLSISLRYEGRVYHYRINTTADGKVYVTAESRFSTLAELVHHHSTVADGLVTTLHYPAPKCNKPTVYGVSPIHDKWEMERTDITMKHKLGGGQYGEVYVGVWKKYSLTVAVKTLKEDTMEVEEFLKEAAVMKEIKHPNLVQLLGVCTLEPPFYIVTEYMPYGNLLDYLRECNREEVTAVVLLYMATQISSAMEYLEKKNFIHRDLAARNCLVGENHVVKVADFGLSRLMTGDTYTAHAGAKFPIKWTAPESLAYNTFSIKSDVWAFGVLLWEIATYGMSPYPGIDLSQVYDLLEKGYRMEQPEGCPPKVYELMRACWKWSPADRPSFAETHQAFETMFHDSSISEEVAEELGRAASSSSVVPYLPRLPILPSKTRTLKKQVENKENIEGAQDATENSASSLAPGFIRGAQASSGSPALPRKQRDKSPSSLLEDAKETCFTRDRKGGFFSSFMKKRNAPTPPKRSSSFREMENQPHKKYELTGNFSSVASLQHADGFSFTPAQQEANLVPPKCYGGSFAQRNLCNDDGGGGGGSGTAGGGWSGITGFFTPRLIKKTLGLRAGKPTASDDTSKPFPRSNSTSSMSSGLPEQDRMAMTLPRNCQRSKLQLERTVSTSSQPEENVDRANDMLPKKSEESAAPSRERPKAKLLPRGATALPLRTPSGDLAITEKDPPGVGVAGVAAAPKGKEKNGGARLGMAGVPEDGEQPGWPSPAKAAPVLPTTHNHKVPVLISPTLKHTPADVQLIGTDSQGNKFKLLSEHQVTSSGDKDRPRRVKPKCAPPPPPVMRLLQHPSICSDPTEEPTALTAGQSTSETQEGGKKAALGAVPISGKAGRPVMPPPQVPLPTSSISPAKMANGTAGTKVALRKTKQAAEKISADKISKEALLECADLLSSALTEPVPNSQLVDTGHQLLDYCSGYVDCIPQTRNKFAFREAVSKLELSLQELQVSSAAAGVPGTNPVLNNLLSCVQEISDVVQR

[11] = target: Dual specificity mitogen-activated protein kinase kinase 1 (Homo sapiens, UniProt Q02750); experiment: Selectivity interaction (ActivX KiNativ screen (kinase selectivity in THP-1 cell lysates)) EUB0000639a MAP2K1; assay type: subcellular; details: lysate
Dual specificity mitogen-activated protein kinase kinase 1, sequence (Q02750 whole entry): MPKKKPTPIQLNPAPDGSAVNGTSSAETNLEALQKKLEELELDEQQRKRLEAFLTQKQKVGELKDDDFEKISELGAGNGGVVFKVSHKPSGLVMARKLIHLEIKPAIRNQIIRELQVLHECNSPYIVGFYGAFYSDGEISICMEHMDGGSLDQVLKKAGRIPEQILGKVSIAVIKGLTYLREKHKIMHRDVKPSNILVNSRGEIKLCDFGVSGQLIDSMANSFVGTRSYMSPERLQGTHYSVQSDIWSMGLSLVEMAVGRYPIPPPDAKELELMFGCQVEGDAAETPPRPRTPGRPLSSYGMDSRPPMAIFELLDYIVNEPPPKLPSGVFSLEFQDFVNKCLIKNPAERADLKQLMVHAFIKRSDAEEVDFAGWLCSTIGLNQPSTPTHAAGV

[12] = target: Phosphatidylinositol 3-kinase catalytic subunit type 3 (Homo sapiens, UniProt Q8NEB9); experiment: Selectivity interaction (ActivX KiNativ screen (kinase selectivity in THP-1 cell lysates)) EUB0000639a PIK3C3; assay type: subcellular; details: lysate, at 1 µM
[13] = target: Serine/threonine-protein kinase MARK2 (Homo sapiens) (UniProt Q7KZI7); experiment: Selectivity interaction (Kinase panel (Invitrogen)) EUB0000639a MARK2; details: at 200 nM
Serine/threonine-protein kinase MARK2 (Homo sapiens), sequence (Q7KZI7 whole entry): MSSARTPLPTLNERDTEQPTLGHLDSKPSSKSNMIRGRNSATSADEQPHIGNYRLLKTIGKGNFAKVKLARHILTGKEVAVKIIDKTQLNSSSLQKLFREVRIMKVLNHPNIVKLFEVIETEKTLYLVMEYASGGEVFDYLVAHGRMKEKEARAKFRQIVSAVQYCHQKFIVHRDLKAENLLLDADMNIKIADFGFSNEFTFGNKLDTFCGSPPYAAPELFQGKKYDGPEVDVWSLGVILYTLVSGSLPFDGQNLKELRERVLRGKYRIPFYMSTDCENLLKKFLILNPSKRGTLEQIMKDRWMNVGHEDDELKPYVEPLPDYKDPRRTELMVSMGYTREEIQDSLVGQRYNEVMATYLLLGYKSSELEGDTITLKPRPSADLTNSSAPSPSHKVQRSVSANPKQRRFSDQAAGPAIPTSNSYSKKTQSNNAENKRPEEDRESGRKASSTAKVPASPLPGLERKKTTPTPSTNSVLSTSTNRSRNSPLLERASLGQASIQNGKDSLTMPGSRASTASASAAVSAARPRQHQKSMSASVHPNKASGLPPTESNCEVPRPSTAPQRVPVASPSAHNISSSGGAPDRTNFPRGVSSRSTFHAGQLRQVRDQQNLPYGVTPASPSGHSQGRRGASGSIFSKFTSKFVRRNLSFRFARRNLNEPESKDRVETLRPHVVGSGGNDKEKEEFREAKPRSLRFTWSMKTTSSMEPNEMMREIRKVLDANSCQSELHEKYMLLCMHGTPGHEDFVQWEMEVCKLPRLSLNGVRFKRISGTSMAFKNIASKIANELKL

[14] = target: Protein kinase C eta type (Homo sapiens) (UniProt P24723); experiment: Selectivity interaction (KinomeScan (DiscoverX)) EUB0001049a PRKCH; details: at 1 µM
Protein kinase C eta type (Homo sapiens), sequence (P24723 whole entry): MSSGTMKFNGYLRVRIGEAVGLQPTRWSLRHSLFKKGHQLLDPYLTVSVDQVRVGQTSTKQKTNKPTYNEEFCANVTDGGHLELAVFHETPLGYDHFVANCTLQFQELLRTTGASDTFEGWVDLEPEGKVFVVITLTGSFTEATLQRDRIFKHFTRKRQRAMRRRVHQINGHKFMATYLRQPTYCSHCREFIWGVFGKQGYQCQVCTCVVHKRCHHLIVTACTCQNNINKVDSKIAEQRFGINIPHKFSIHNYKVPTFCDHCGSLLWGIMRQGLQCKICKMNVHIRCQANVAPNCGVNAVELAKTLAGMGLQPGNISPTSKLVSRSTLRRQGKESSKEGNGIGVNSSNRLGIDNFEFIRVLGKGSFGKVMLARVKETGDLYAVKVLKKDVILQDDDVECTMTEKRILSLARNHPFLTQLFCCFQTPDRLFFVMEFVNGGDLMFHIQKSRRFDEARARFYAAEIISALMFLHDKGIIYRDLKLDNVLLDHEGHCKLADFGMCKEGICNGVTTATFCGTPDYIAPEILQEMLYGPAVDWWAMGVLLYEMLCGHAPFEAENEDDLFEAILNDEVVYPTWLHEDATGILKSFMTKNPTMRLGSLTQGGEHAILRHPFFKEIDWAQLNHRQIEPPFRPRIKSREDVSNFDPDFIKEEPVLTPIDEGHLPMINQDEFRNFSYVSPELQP

[15] = target: MAP kinase-interacting serine/threonine-protein kinase 1 (Homo sapiens) (UniProt Q9BUB5); experiment: Selectivity interaction (KinomeScan (DiscoverX)) EUB0000595a MKNK1; details: at 10 µM
[16] = target: Calcium/calmodulin-dependent protein kinase type II subunit beta (Homo sapiens) (UniProt Q13554); experiment: Selectivity interaction (Ambit KINOMEscan and KiNATiv profiling in Jurkat cells) EUB0000090b CAMK2B; assay type: cell-based; details: at 1 µM
[17] = target: T2, Ephrin type-A receptor 8 (Homo sapiens) (UniProt P29322); experiment: Selectivity interaction (KinomeScan (DiscoverX)) EUB0001619a EPHA8; details: at 1 µM
T2 sequence (whole entry): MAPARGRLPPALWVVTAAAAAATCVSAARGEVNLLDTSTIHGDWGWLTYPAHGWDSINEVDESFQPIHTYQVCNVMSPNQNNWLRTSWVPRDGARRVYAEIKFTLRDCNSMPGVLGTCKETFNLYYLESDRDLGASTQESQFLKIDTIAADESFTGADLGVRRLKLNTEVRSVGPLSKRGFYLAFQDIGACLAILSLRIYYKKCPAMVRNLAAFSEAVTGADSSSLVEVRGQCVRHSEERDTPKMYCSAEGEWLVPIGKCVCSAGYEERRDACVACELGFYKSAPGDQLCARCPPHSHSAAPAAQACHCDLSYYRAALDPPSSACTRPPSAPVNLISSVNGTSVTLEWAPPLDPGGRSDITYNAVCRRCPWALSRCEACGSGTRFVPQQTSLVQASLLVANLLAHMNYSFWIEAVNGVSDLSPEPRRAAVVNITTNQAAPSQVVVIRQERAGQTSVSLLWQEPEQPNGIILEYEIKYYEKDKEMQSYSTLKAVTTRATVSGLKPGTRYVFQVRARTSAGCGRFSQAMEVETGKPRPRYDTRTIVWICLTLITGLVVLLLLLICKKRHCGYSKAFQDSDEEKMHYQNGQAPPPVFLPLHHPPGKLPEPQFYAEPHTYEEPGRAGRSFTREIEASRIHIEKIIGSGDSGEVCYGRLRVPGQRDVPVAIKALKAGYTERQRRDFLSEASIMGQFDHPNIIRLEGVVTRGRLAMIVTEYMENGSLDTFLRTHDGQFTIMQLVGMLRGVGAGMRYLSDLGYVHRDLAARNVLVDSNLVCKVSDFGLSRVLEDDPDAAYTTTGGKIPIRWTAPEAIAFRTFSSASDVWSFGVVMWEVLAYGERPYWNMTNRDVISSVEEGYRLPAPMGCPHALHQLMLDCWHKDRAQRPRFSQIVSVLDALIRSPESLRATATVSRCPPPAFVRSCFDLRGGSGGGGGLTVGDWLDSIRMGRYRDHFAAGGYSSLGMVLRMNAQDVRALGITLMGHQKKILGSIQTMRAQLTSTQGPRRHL

CC(C)(O)[C@H](F)CN1Cc2cc(NC(=O)c3cnn4cccnc34)c(N3CCOCC3)cc2C1=O
dTM [1]: 0.1 K

COc1cc(N(C)c2ccnc3ccc(C(F)(F)F)cc23)cc(OC)c1OC
% binding [2]: 96%

CCC(=O)N1CCN(c2ccc(-n3c(=O)ccc4cnc5ccc(-c6cnc7ccccc7c6)cc5c43)cc2C(F)(F)F)CC1
% of control [3]: 93% | % of control [4]: 100%

C=CC(=O)Nc1cccc(C(=O)Nc2ccc(Nc3cc(-c4[nH]c(SC)nc4C)ccn3)cc2)c1
% of control [5]: 103%

Nc1cnc(N2CCc3cc(S(=O)(=O)Nc4c(F)cc(Cl)cc4F)cc(N4CCCC4=O)c32)nc1 [TP-020n]
% of control [6]: 100% | % of inhibition [7]: -5.02% | % of control [8]: 100%

Cc1cc([C@@H](C)Nc2ccccc2C(=O)O)c2nc(N3CCOCC3)cc(=O)n2c1 [AZD-6482]
% of control [9]: 100% | % of control [10]: 95%

CC[C@@H]1[C@H](F)C(=O)N[C@@H]1COc1nccc2cc(C(N)=O)c(OC)cc12 [ZIMLOVISERTIB]
% of inhibition ([11]; at 0.01 µM): -25.6% | % of inhibition ([11]; at 0.04 µM): -4.8% | % of inhibition ([11]; at 0.2 µM): -3.6% | % of inhibition ([11]; at 1 µM): 3.1% | % of inhibition ([11]; at 5 µM): 18.5% | % of inhibition [12]: -13.7% | % of inhibition [13]: 5.09%

COc1cc(Nc2nc(C)cc(-c3cnn4nc(OC)ccc34)n2)cc(C(F)(F)F)c1
% of control [14]: 100%

COCC(=O)NC/C=C/c1ccc2ncnc(Nc3ccc(Oc4ccc(C)nc4)c(C)c3)c2c1 [CP-724714]
% of control [15]: 100%

CN(C)C/C=C/C(=O)Nc1ccc(C(=O)N2CCCC(Nc3ncc(Cl)c(-c4c[nH]c5ccccc45)n3)C2)cc1 (stereo unspecified)
% of control [16]: 94%

N#Cc1cccc(-c2c[nH]c3ncnc(N4CCOCC4)c23)c1
% of control [17]: 100%
